Our source for the mutagenic call values is PubChem BioAssay AID1259407 (Chemical Carcinogenesis Research Information System (CCRIS), 2018).

Activity calls are given as the source filed them. No rule for the calls is given here.

The series concerns CCRIS mutagenicity, Ames/micronucleus/aberration tests. Nature of the series: CCRIS mutagenicity studies. As to conditions: Test System: AMES SALMONELLA TYPHIMURIUM
Where [1] appears, read: Strain/Indicator: TA98, Metabolic Activation: HAMSTER, LIVER, S-9, AROCLOR 1254 (10%), Method: PREINCUBATION
[2] abbreviates: Strain/Indicator: TA98, Metabolic Activation: NONE, Method: PREINCUBATION
The mark [3] stands for this setting: Strain/Indicator: TA98, Metabolic Activation: RAT, LIVER, S-9, AROCLOR 1254 (10%), Method: PREINCUBATION
The mark [4] stands for this setting: Strain/Indicator: TA100, Metabolic Activation: HAMSTER, LIVER, S-9, AROCLOR 1254 (10%), Method: PREINCUBATION
The mark [5] stands for this setting: Strain/Indicator: TA100, Metabolic Activation: NONE, Method: PREINCUBATION
The mark [6] stands for this setting: Strain/Indicator: TA100, Metabolic Activation: RAT, LIVER, S-9, AROCLOR 1254 (10%), Method: PREINCUBATION
The mark [7] stands for this setting: Strain/Indicator: TA1535, Metabolic Activation: HAMSTER, LIVER, S-9, AROCLOR 1254 (10%), Method: PREINCUBATION
Setting [8] is: Strain/Indicator: TA1535, Metabolic Activation: NONE, Method: PREINCUBATION
The mark [9] stands for this setting: Strain/Indicator: TA1535, Metabolic Activation: RAT, LIVER, S-9, AROCLOR 1254 (10%), Method: PREINCUBATION

With `CC(=O)OCc1ccc2c(c1)OCO2`, the mutagenic call under setting [1] was “inactive; negative”; the mutagenic call under setting [2] is “inactive; negative”; the mutagenic call under setting [3] is “inactive; negative”; the mutagenic call under setting [4] is “inactive; negative”; the mutagenic call under setting [5] is “inactive; negative”; the mutagenic call under setting [6] is “inactive; negative”. Further, the mutagenic call was “inactive; negative” under setting [7]; “inactive; negative” under setting [8]; “inactive; negative” under setting [9]; “inactive; negative” (Strain/Indicator: TA1537, Metabolic Activation: HAMSTER, LIVER, S-9, AROCLOR 1254 (10%), Method: PREINCUBATION); “inactive; negative” (Strain/Indicator: TA1537, Metabolic Activation: NONE, Method: PREINCUBATION); “inactive; negative” (Strain/Indicator: TA1537, Metabolic Activation: RAT, LIVER, S-9, AROCLOR 1254 (10%), Method: PREINCUBATION).
`O=C(/C=C/c1ccccc1)c1ccc(Br)cc1`: the mutagenic call runs as follows: (Strain/Indicator: TA98, Metabolic Activation: NONE, Method: STANDARD PLATE) “inactive; negative”; (Strain/Indicator: TA98, Metabolic Activation: RAT, LIVER, S-9, AROCLOR 1254, Method: STANDARD PLATE) “inactive; negative”; (Strain/Indicator: TA100, Metabolic Activation: NONE, Method: STANDARD PLATE) “inactive; negative”; (Strain/Indicator: TA100, Metabolic Activation: RAT, LIVER, S-9, AROCLOR 1254, Method: STANDARD PLATE) “inactive; negative”.
On to `BrCC1CO1` (stereo not given), for which the mutagenic call is “active; positive” under setting [4]; “active; positive” under setting [5]; “active; positive” under setting [6]; “active; positive” under setting [7]; “active; positive” under setting [8]; “active; positive” under setting [9].
As for `CCCCC(CC)COCCCN` (stereo not given), the mutagenic call runs as follows: (Strain/Indicator: TA97, Metabolic Activation: HAMSTER, LIVER, S-9, AROCLOR 1254 (10%), Method: PREINCUBATION) “inactive; negative”; (Strain/Indicator: TA97, Metabolic Activation: HAMSTER, LIVER, S-9, AROCLOR 1254 (30%), Method: PREINCUBATION) “inactive; negative”; (Strain/Indicator: TA97, Metabolic Activation: NONE, Method: PREINCUBATION) “inactive; negative”; (Strain/Indicator: TA97, Metabolic Activation: RAT, LIVER, S-9, AROCLOR 1254 (10%), Method: PREINCUBATION) “inactive; negative”; (Strain/Indicator: TA97, Metabolic Activation: RAT, LIVER, S-9, AROCLOR 1254 (30%), Method: PREINCUBATION) “inactive; negative”; under setting [1], “inactive; negative”. Besides, the mutagenic call by setting is: (Strain/Indicator: TA98, Metabolic Activation: HAMSTER, LIVER, S-9, AROCLOR 1254 (30%), Method: PREINCUBATION) “inactive; negative”; under setting [2], “inactive; negative”; under setting [3], “inactive; negative”; (Strain/Indicator: TA98, Metabolic Activation: RAT, LIVER, S-9, AROCLOR 1254 (30%), Method: PREINCUBATION) “inactive; negative”; under setting [4], “inactive; negative”; (Strain/Indicator: TA100, Metabolic Activation: HAMSTER, LIVER, S-9, AROCLOR 1254 (30%), Method: PREINCUBATION) “inactive; negative”. Further, the mutagenic call reads like this: under setting [5], “inactive; negative”; under setting [6], “inactive; negative”; (Strain/Indicator: TA100, Metabolic Activation: RAT, LIVER, S-9, AROCLOR 1254 (30%), Method: PREINCUBATION) “inactive; negative”; under setting [7], “inactive; negative”; (Strain/Indicator: TA1535, Metabolic Activation: HAMSTER, LIVER, S-9, AROCLOR 1254 (30%), Method: PREINCUBATION) “inactive; negative”; under setting [8], “inactive; negative”. Moreover, the mutagenic call runs as follows: under setting [9], “inactive; negative”; (Strain/Indicator: TA1535, Metabolic Activation: RAT, LIVER, S-9, AROCLOR 1254 (30%), Method: PREINCUBATION) “inactive; negative”.
Take `N[C@@H](CSc1ccc([N+](=O)[O-])cc1[N+](=O)[O-])C(=O)O`: the mutagenic call (Strain/Indicator: TA100(NR), Metabolic Activation: NONE, Method: PREINCUBATION) was “active; positive”; the mutagenic call (Strain/Indicator: TA100/GSH-, Metabolic Activation: NONE, Method: PREINCUBATION) was “active; positive”; the mutagenic call under setting [5] was “active; positive”.
